Results taken from the NIST ThermoML archive (doi:10.1021/je700707y).
Several values for one entry are separate records, joined by “and”; a condition that tells them apart may be missing. Equal values may be shown once.

Columns and labels:
[1] = 101.33 kPa, Liquid, Vibrating tube method
[2] = wn = mass fraction of the nth substance listed; settings: Liquid, Vibrating tube method, w2 = 0.001

CCCCCCCCCCCCCC[P+](CCCCCC)(CCCCCC)CCCCCC.O=S(=O)([N-]S(=O)(=O)C(F)(F)F)C(F)(F)F
[1]
Settings | mass density [kg/m3]
293.15 K | 1067.6
303.15 K | 1060.3
313.15 K | 1052.9
323.15 K | 1045.7
333.15 K | 1038.6
343.15 K | 1031.5
353.15 K | 1024.4
363.15 K | 1017.3

CCCCn1cc[n+](C)c1.F[P-](F)(F)(F)(F)F [1-butyl-3-methylimidazolium hexafluorophosphate] + O
[2], 101 kPa
Settings | mass density [kg/m3]
293.15 K | 1367.5
298.15 K | 1363.4
303.15 K | 1359.2
308.15 K | 1355.2
313.15 K | 1351
318.15 K | 1346.8
323.15 K | 1342.4
328.15 K | 1338.5
333.15 K | 1334.4
338.15 K | 1330.3
343.15 K | 1326.2

CCCCCCCCCCn1cc[n+](C)c1.O=S(=O)([N-]S(=O)(=O)C(F)(F)F)C(F)(F)F + O
Settings | mass density [kg/m3]
[2], 298.15 K, 100 kPa | 1275.5

CCn1cc[n+](C)c1.O=S(=O)([N-]S(=O)(=O)C(F)(F)F)C(F)(F)F + O
[2], 101 kPa
Settings | mass density [kg/m3]
293.15 K | 1520
298.15 K | 1515
303.15 K | 1510
308.15 K | 1504.9
313.15 K | 1499.8
318.15 K | 1494.8
323.15 K | 1489.8
328.15 K | 1484.8
333.15 K | 1479.7
338.15 K | 1474.7
343.15 K | 1469.7

Cn1cc[n+](C)c1.N#C[S-] [1,3-dimethylimidazolium thiocyanate]
[1]
Settings | mass density [kg/m3]
293.15 K | 1160.7
298.15 K | 1157.4
303.15 K | 1154.2
313.15 K | 1147.8
323.15 K | 1141.4
333.15 K | 1135.2
343.15 K | 1129.1
353.15 K | 1123.1
363.15 K | 1117.2

C[N+]1(CC#N)CCCC1.O=S(=O)([N-]S(=O)(=O)C(F)(F)F)C(F)(F)F
[1]
Settings | mass density [kg/m3]
293.15 K | 1545.4
298.15 K | 1537.8
303.15 K | 1533.1
313.15 K | 1523.8
323.15 K | 1514.5
333.15 K | 1505.5
343.15 K | 1496.7
353.15 K | 1487.8
363.15 K | 1479

CCCCCCCCCCCCCC[P+](CCCCCC)(CCCCCC)CCCCCC.O=S(=O)([N-]S(=O)(=O)C(F)(F)F)C(F)(F)F + O
Settings | mass density [kg/m3]
[2], 298.15 K, 100 kPa | 1060.1

CCCCCC[n+]1ccn(C)c1.O=S(=O)([N-]S(=O)(=O)C(F)(F)F)C(F)(F)F
[1]
Settings | mass density [kg/m3]
293.15 K | 1375.1
303.15 K | 1366
313.15 K | 1356.9
323.15 K | 1347.9
333.15 K | 1338.8
343.15 K | 1329.8
353.15 K | 1320.9
363.15 K | 1311.9

CCOS(=O)(=O)[O-].CCn1cc[n+](C)c1 [1-ethyl-3-methylimidazolium ethyl sulfate]
[1]
Settings | mass density [kg/m3]
293.15 K | 1242.3
303.15 K | 1235.6
313.15 K | 1228.9
323.15 K | 1222.1
333.15 K | 1215.5
343.15 K | 1208.8
353.15 K | 1202.2
363.15 K | 1195.6

CCCC[n+]1ccn(C)c1.O=S(=O)([N-]S(=O)(=O)C(F)(F)F)C(F)(F)F + O
[2], 101 kPa
Settings | mass density [kg/m3]
293.15 K | 1439.9
298.15 K | 1435.1
303.15 K | 1430.3
308.15 K | 1425.5
313.15 K | 1420.7
318.15 K | 1416
323.15 K | 1411.2
328.15 K | 1406.5
333.15 K | 1401.7
338.15 K | 1396.9
343.15 K | 1392.2

CCCCn1cc[n+](C)c1.F[B-](F)(F)F [1-butyl-3-methylimidazolium tetrafluoroborate] + O
Settings | mass density [kg/m3]
[2], 298.15 K, 100 kPa | 1197.5

CCCCn1cc[n+](C)c1.F[B-](F)(F)F [1-butyl-3-methylimidazolium tetrafluoroborate]
[1]
Settings | mass density
293.15 K | 1203.8 kg/m3 and 1204.9 kg/m3
298.15 K | 1200 kg/m3 and 1201.1 kg/m3
303.15 K | 1196.2 kg/m3 and 1197.4 kg/m3
308.15 K | 1192.4 kg/m3 and 1193.8 kg/m3
313.15 K | 1188.9 kg/m3 and 1190.1 kg/m3
318.15 K | 1185.4 kg/m3 and 1186.5 kg/m3
323.15 K | 1181.3 kg/m3 and 1182.7 kg/m3
328.15 K | 1177.9 kg/m3 and 1179 kg/m3
333.15 K | 1174.1 kg/m3 and 1175.3 kg/m3
338.15 K | 1170.5 kg/m3 and 1171.7 kg/m3
343.15 K | 1166.9 kg/m3 and 1168 kg/m3

CCn1cc[n+](C)c1.O=S(=O)([N-]S(=O)(=O)C(F)(F)F)C(F)(F)F
[1]
Settings | mass density
293.15 K | 1522.9 kg/m3 and 1523.4 kg/m3
298.15 K | 1517.9 kg/m3
303.15 K | 1512.9 kg/m3 and 1513.4 kg/m3
308.15 K | 1507.9 kg/m3
313.15 K | 1502.9 kg/m3 and 1503.4 kg/m3
318.15 K | 1497.9 kg/m3
323.15 K | 1492.9 kg/m3 and 1493.4 kg/m3
328.15 K | 1488 kg/m3
333.15 K | 1483 kg/m3 and 1483.5 kg/m3
338.15 K | 1478 kg/m3
343.15 K | 1473 kg/m3 and 1473.7 kg/m3
353.15 K | 1463.8 kg/m3
363.15 K | 1454 kg/m3

CCCC[n+]1ccn(C)c1.O=S(=O)([N-]S(=O)(=O)C(F)(F)F)C(F)(F)F
[1]
Settings | mass density
293.15 K | 1442.7 kg/m3 and 1440.2 kg/m3
298.15 K | 1437.9 kg/m3
303.15 K | 1433.1 kg/m3 and 1430.7 kg/m3
308.15 K | 1428.3 kg/m3
313.15 K | 1423.5 kg/m3 and 1421.2 kg/m3
318.15 K | 1418.8 kg/m3
323.15 K | 1414 kg/m3 and 1411.8 kg/m3
328.15 K | 1409.3 kg/m3
333.15 K | 1404.5 kg/m3 and 1402.4 kg/m3
338.15 K | 1399.7 kg/m3
343.15 K | 1395 kg/m3 and 1393 kg/m3
353.15 K | 1383.6 kg/m3
363.15 K | 1374.3 kg/m3

CCCCCCCCCCn1cc[n+](C)c1.O=S(=O)([N-]S(=O)(=O)C(F)(F)F)C(F)(F)F
[1]
Settings | mass density [kg/m3]
293.15 K | 1282.4
303.15 K | 1273.8
313.15 K | 1265.3
323.15 K | 1256.8
333.15 K | 1248.3
343.15 K | 1239.9
353.15 K | 1231.4
363.15 K | 1223.1

N#CC[n+]1ccccc1.O=S(=O)([N-]S(=O)(=O)C(F)(F)F)C(F)(F)F
[1]
Settings | mass density [kg/m3]
293.15 K | 1636.2
298.15 K | 1631.2
303.15 K | 1626.2
313.15 K | 1616.2
323.15 K | 1606.4
333.15 K | 1596.8
343.15 K | 1587.3
353.15 K | 1577.7
363.15 K | 1568.3

CCCCCCCCn1cc[n+](C)c1.O=S(=O)([N-]S(=O)(=O)C(F)(F)F)C(F)(F)F
[1]
Settings | mass density [kg/m3]
293.15 K | 1324.5
303.15 K | 1315.8
313.15 K | 1307
323.15 K | 1298.2
333.15 K | 1289.5
343.15 K | 1280.8
353.15 K | 1272.1
363.15 K | 1263.5

CCCC[N+]1(C)CCCC1.FC(F)(F)C(F)(F)[P-](F)(F)(F)(C(F)(F)C(F)(F)F)C(F)(F)C(F)(F)F
[1]
Settings | mass density [kg/m3]
293.15 K | 1588.1
303.15 K | 1577.3
313.15 K | 1566.8
323.15 K | 1556.4
333.15 K | 1545.9
343.15 K | 1535.5
353.15 K | 1525.1
363.15 K | 1514.7

CCCCn1cc[n+](C)c1.O=S(=O)([O-])C(F)(F)F [1-butyl-3-methylimidazolium trifluoromethanesulfonate]
[1]
Settings | mass density [kg/m3]
293.15 K | 1301.3
303.15 K | 1293.4
313.15 K | 1285.6
323.15 K | 1277.7
333.15 K | 1269.9
343.15 K | 1262.3
353.15 K | 1254.5
363.15 K | 1246.9

CCCCCC[n+]1ccn(C)c1.FC(F)(F)C(F)(F)[P-](F)(F)(F)(C(F)(F)C(F)(F)F)C(F)(F)C(F)(F)F
[1]
Settings | mass density [kg/m3]
293.15 K | 1557.1
298.15 K | 1551.8
303.15 K | 1546.4
313.15 K | 1535.7
323.15 K | 1525
333.15 K | 1514.3
343.15 K | 1503.6
353.15 K | 1493
363.15 K | 1482.4

CCCCn1cc[n+](C)c1.F[P-](F)(F)(F)(F)F [1-butyl-3-methylimidazolium hexafluorophosphate]
[1]
Settings | mass density
293.15 K | 1369.8 kg/m3 and 1368.1 kg/m3
298.15 K | 1365.7 kg/m3 and 1364.1 kg/m3
303.15 K | 1361.6 kg/m3 and 1360 kg/m3
308.15 K | 1357.4 kg/m3 and 1355.7 kg/m3
313.15 K | 1353.3 kg/m3 and 1351.8 kg/m3
318.15 K | 1349.2 kg/m3 and 1347.5 kg/m3
323.15 K | 1345.1 kg/m3 and 1343.5 kg/m3
328.15 K | 1341 kg/m3 and 1339.4 kg/m3
333.15 K | 1336.9 kg/m3 and 1335.2 kg/m3
338.15 K | 1332.7 kg/m3 and 1331.1 kg/m3
343.15 K | 1328.6 kg/m3 and 1327 kg/m3
